The record followed here is patent publication US7629315B2, “Compositions for blocking the inhibitory effect of human CRP on human leptin” (University of Pittsburgh of the Commonwealth System of …, priority 2005, dated 2009).

In general, Kd refers to the free concentration of one partner at which half of the binding sites on the other are occupied at equilibrium, for simple one-to-one binding.

One experiment concerns lean and healthy humans. Kind of experiment: Injection of leptin in lean and healthy humans, plasma CRP. Format: in vivo, human.
A further experiment deals with ob/ob mice. As to the kind of experiment: Infusion of human CRP and/or human leptin by osmotic pumps into ob/ob mice. It is filed as in vivo, mouse. The procedure:
3(a). In vivo assessment of CRP functions: The micro-osmotic pumps (#1007D, DURECT, Cupertino, Calif.) were subcutaneously imbedded in the ob/ob or wild-type mice according to the instructions of the manufacturer. The osmotic pumps were pre-filled with saline, CRP, leptin or leptin plus CRP. Food-intake (24-h), body weight, and body temperature were monitored daily post-surgery. Blood glucose concentrations were measured from the tail-vein blood samples right before and at the end of infusion with a Precision Plus glucose meter (Medisense, Abbot Park, Ill.).
3(b) Assessment of serum leptin insulin, and CRP: Human- and mouse-leptin concentrations were measured with the ELISA kit from CHEMICON (Temecular, Calif.) and R&D Systems (Minneapolis, Minn.), respectively, according to the instructions of the manufacturer. Serum mouse insulin concentrations were determined with an ELISA assay (LINCO Research, St. Charles, Mo.). Human CRP concentrations were also evaluated with an ELISA kit (Alpha Diagnostics International, San Antonio, Tex.).
3(c) Measurement of serum- and tissue-triglycerides: Serum- and tissue-triglycerides were determined with the protocols described in J. N. Huan et al., 2003, J. Biol. Chem. 278, 45638. […]

For experiment [1], the system named is human primary hepatocytes. Kind of experiment: Leptin-stimulated CRP expression in human primary hepatocytes in vitro. It is filed as cell-based.
For a further experiment, the system named is mice. As to the kind of experiment: Continuous infusion of leptin in mice, plasma SAP. The settings on record: elevation of serum leptin through continuous infusion in mice. Format: in vivo, mouse.
In experiment [2] the target is T1, long-form human leptin receptor, OB-Rb (Homo sapiens, UniProt P48357).
T1 construct: expressed in transfected cells
T1 sequence (P48357 22-1165): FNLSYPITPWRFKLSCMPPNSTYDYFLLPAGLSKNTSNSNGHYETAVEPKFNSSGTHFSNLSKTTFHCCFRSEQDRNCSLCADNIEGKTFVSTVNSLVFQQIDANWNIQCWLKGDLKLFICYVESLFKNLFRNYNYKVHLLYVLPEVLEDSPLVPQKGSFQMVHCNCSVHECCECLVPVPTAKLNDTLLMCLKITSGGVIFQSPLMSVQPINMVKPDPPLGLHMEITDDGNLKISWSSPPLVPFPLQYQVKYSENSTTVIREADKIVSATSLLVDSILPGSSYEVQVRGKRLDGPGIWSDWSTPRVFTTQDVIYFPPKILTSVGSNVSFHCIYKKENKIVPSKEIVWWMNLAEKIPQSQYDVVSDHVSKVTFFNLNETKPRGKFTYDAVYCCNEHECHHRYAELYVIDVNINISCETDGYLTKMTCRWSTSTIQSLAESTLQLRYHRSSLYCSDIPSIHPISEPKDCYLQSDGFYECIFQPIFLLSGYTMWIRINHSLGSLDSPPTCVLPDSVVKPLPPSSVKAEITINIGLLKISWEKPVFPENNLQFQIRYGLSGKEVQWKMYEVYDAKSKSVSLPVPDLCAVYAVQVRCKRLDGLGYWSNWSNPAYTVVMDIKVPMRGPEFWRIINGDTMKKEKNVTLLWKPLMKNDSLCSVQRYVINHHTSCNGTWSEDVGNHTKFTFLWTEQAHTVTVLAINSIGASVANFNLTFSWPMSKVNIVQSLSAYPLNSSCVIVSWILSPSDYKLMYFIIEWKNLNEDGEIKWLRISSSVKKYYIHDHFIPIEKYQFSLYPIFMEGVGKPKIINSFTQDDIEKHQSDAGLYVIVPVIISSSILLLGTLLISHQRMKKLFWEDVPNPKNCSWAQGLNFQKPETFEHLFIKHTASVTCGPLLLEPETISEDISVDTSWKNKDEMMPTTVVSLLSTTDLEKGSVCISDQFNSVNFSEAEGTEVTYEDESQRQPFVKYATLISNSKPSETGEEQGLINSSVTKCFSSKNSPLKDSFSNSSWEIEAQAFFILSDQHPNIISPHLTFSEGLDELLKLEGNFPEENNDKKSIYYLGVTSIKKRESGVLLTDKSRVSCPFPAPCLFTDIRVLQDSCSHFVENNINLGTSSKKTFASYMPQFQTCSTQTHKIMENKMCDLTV
Kind of experiment: 125I-leptin binding to HEK293 cells stably transfected with OB-Rb. The settings on record: HEK293 cell line stably transfected with OB-Rb; read-out: Kd for leptin and its receptors. The procedure: 4. Measurement of IC50 for human CRP against human leptin: Human leptin was iodinated with Na^125I using the lodogen method. Briefly, 15 μg of human leptin in 100 mM Phosphate buffer pH 7.5 were incubated with 1 mCi of carrier-free Na^125I (2200 Ci/mmol) in a glass tube containing 50 μg Iodogen. After 10 minute incubation at room temperature, the reaction was stopped with 100 μl 0.1% trifluoroacetic acid (TFA). The reaction mixture was immediately purified by reverse-phase HPLC. The separation employed a 5 minute isocratic step at 20% eluant B in A, followed by two consecutive 30 minute linear gradients from 20 to 50%, then from 50 to 60% eluant B in A (where eluant A is water containing 0.1% TFA and eluant B is acetonitrile containing 0.1% TFA) at a flow rate of 1.5 ml/min. The ^125I-labeled leptin (˜2 ng/ml) was pre-incubated with various concentrations of human CRP in 1 ml of μ-MEM for 30 minute before added to the OBR-expressing HEK293 cells. The incubation would last for 3 hours at 4° C. before the media was aspirated and the cells were dissolved in 0.1N NaOH for scintillation counting.
To examine if human CRP interferes with the binding of human leptin to its receptors, we used a HEK293 cell line stably transfected with the long-form human leptin receptor, OB-Rb. The characterization of this cell line has been reported in earlier studies. M. Friedman-Einat et al., 2003, Regul. Pept. […]

The test system of a further experiment is leptin. Kind of experiment: Immunoprecipitation of mouse SAP with leptin. It is filed as binding.
[3] abbreviates: human leptin alone, 6-day continuous infusion.

For “human leptin: recombinant human leptin, adipocyte hormone (SEQ ID NO:4)”, the “plasma CRP concentrations” value in the experiment on lean and healthy humans is “leads to elevation of plasma CRP concentrations”. For the same molecule, in the experiment with ob/ob mice (setting [3]), the body weight result was “produced the expected reduction in food-intake and body weight”; the food-intake result is “produced the expected reduction in food-intake and body weight”. Moreover, in the experiment on ob/ob mice (leptin alone), the blood glucose result was “lowering”, the hepatic triglyceride entry is “lowering”, the plasma insulin result is on record as “lowering” and the serum triglyceride entry is recorded as “lowering”. In addition, in experiment [1], the “expression of CRP” value was “stimulates expression of CRP”. Moreover, the “plasma concentrations of SAP” value with mice is on record as “increased plasma concentrations of SAP in mice”. Moreover, the Kd in experiment [2] was found to be 1 nM.

B1: mouse SAP: mouse pentraxin-like serum amyloid P component structurally similar to CRP (protein)
chain: QTDLKRKVFVFPRESETDHVKLIPHLEKPLQNFTLCFRTYSDLSRSQSLFSYSVKGRDNELLIYKEKVGEYSLYIGQSKVTVRGMEEYLSPVHLCTTWESSSGIVEFWVNGKPWVKKSLQREYTVKAPPSIVLGQEQDNYGGGFQRSQSFVGEFSDLYMWDYVLTPQDILFVYRDSPVNPNILNWQALNYEINGYVVIRPRVWD
As for B1, the “binding of leptin (immunoprecipitation)” value with leptin is reported as “leptin binds to mouse SAP”.
